Experimental data as given in ChEMBL document CHEMBL1201862, “PubChem BioAssay data set” (2004).
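Assay format: 96-well plates, 48-hour exposure. The concentration for 50% growth inhibition is given as GI50.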 Calls of active or inactive are those of the source. Rule as the data show it: active = GI50 up to about 1.1 µM and inactive = higher.

Legend:
Assay in all cases: DTP human tumour cell line panel, 48 h
SK-OV-3 = test system: SK-OV-3
HCT-15 = test system: HCT-15
786-0 = test system: 786-0
OVCAR-3 = test system: OVCAR-3
HT-29 = test system: HT-29
UACC-257 = test system: UACC-257
OVCAR-4 = test system: OVCAR-4
SF-268 = test system: SF-268
CAKI-1 = test system: CAKI-1
IGROV-1 = test system: IGROV-1
SW-620 = test system: SW-620
RXF 393 = test system: RXF 393
HOP-62 = test system: HOP-62
SNB-19 = test system: SNB-19
M14 = test system: M14
K562 = test system: K562
CCRF-CEM = test system: CCRF-CEM
SK-MEL-5 = test system: SK-MEL-5
UACC-62 = test system: UACC-62
KM12 = test system: KM12

How did the GI50 (SK-OV-3) turn out when Cc1cc(C)n(-c2nc3ccccc3c(=O)n2-c2ccccc2)n1 was run?
Its GI50 is > 100 µM (inactive).

And the GI50 (HCT-15)?
Its GI50 is over 100 µM.

What about the GI50 (786-0) of the same molecule?
The GI50 was > 100 µM (inactive).

And the GI50 (OVCAR-3)?
Its GI50 is > 100 µM (inactive).

And the GI50 (HT-29)?
Its GI50 is > 100 µM (inactive).

And the GI50 (UACC-257)?
Its GI50 is > 100 µM (inactive).

And the GI50 (OVCAR-4)?
Its GI50 is > 100 µM (inactive).

What about the GI50 (SF-268) of the same molecule?
The GI50 was > 100 µM (inactive).

What about the GI50 (CAKI-1) of the same molecule?
The GI50 was > 100 µM (inactive).

What about the GI50 (IGROV-1) of the same molecule?
Its GI50 is > 100 µM (inactive).

What about the GI50 (SW-620) of the same molecule?
Its GI50 is > 100 µM (inactive).

And the GI50 (RXF 393)?
The GI50 was > 100 µM (inactive).

And the GI50 (HOP-62)?
The GI50 was > 100 µM (inactive).

What about the GI50 (SNB-19) of the same molecule?
Its GI50 is > 100 µM (inactive).

What about the GI50 (M14) of the same molecule?
The GI50 was > 100 µM (inactive).

And the GI50 (K562)?
The GI50 was > 100 µM (inactive).

What about the GI50 (CCRF-CEM) of the same molecule?
The GI50 was > 100 µM (inactive).

And the GI50 (SK-MEL-5)?
The GI50 was > 100 µM (inactive).

With CC(CN1CCN(CC(C)Nc2ccnc3cc(Cl)ccc23)CC1)Nc1ccnc2cc(Cl)ccc12 (stereo not given) as the molecule, how does the GI50 (SK-OV-3) read?
Its GI50 is 34 µM (inactive).

What about the GI50 (HCT-15) of the same molecule?
Its GI50 is 15.7 µM.

And the GI50 (786-0)?
Its GI50 is 17.8 µM (inactive).

What about the GI50 (OVCAR-3) of the same molecule?
Its GI50 is 22.8 µM (inactive).

What about the GI50 (UACC-62) of the same molecule?
Its GI50 is 17.9 µM (inactive).

What about the GI50 (HT-29) of the same molecule?
Its GI50 is 6.93 µM (inactive).

What about the GI50 (UACC-257) of the same molecule?
Its GI50 is 19.4 µM (inactive).

And the GI50 (OVCAR-4)?
The GI50 was 20.2 µM (inactive).

What about the GI50 (SF-268) of the same molecule?
The GI50 was 2.81 µM (inactive).

And the GI50 (CAKI-1)?
Its GI50 is 35.4 µM (inactive).

And the GI50 (RXF 393)?
Its GI50 is 13.2 µM (inactive).

And the GI50 (HOP-62)?
The GI50 was 22.5 µM (inactive).

And the GI50 (SNB-19)?
The GI50 was 29 µM (inactive).

And the GI50 (M14)?
The GI50 was 14.5 µM (inactive).

What about the GI50 (KM12) of the same molecule?
Its GI50 is 13.4 µM (inactive).

What about the GI50 (K562) of the same molecule?
Its GI50 is 2.84 µM (inactive).

And the GI50 (CCRF-CEM)?
The GI50 was 3.69 µM (inactive).

And the GI50 (SK-MEL-5)?
Its GI50 is 17.5 µM (inactive).

How did the GI50 (SK-OV-3) turn out when N#CC[C@@H](O)COc1ccccc1 was run?
Its GI50 is > 100 µM (inactive).

And the GI50 (HCT-15)?
Its GI50 is over 100 µM.

What about the GI50 (786-0) of the same molecule?
Its GI50 is > 100 µM (inactive).

What about the GI50 (OVCAR-3) of the same molecule?
The GI50 was > 100 µM (inactive).

And the GI50 (UACC-62)?
The GI50 was > 100 µM (inactive).

And the GI50 (HT-29)?
The GI50 was > 100 µM (inactive).

And the GI50 (UACC-257)?
Its GI50 is > 100 µM (inactive).

And the GI50 (OVCAR-4)?
The GI50 was > 100 µM (inactive).

What about the GI50 (SF-268) of the same molecule?
The GI50 was > 100 µM (inactive).

What about the GI50 (CAKI-1) of the same molecule?
Its GI50 is > 100 µM (inactive).

What about the GI50 (SW-620) of the same molecule?
Its GI50 is > 100 µM (inactive).

What about the GI50 (RXF 393) of the same molecule?
Its GI50 is > 100 µM (inactive).

And the GI50 (HOP-62)?
Its GI50 is > 100 µM (inactive).

And the GI50 (SNB-19)?
The GI50 was > 100 µM (inactive).

And the GI50 (M14)?
Its GI50 is > 100 µM (inactive).

What about the GI50 (KM12) of the same molecule?
Its GI50 is > 100 µM (inactive).

And the GI50 (K562)?
Its GI50 is > 100 µM (inactive).

What about the GI50 (CCRF-CEM) of the same molecule?
Its GI50 is > 100 µM (inactive).

What about the GI50 (SK-MEL-5) of the same molecule?
The GI50 was > 100 µM (inactive).

Which results are given for O=C(Cc1nc2ccccc2s1)C(=O)Nc1cccc(C(F)(F)F)c1?
GI50 (SK-OV-3): > 100 µM (inactive); GI50 (HCT-15): > 100 µM; GI50 (786-0): > 100 µM (inactive); GI50 (OVCAR-3): > 100 µM (inactive); GI50 (UACC-62): > 100 µM (inactive); GI50 (HT-29): > 100 µM (inactive); GI50 (UACC-257): > 100 µM (inactive); GI50 (OVCAR-4): > 100 µM (inactive); GI50 (SF-268): > 100 µM (inactive); GI50 (CAKI-1): > 100 µM (inactive); GI50 (IGROV-1): > 100 µM (inactive); GI50 (SW-620): > 100 µM (inactive); GI50 (RXF 393): > 100 µM (inactive); GI50 (HOP-62): > 100 µM (inactive); GI50 (SNB-19): > 100 µM (inactive); GI50 (M14): > 100 µM (inactive); GI50 (KM12): > 100 µM (inactive); GI50 (CCRF-CEM): > 100 µM (inactive); GI50 (SK-MEL-5): > 100 µM (inactive)

Which GI50 (SK-OV-3) does the source give for COc1cc(OC)cc(Oc2nc3ccc(C(F)(F)F)cc3nc2-c2ccccc2)c1 here?
The GI50 was > 100 µM (inactive).

What about the GI50 (HCT-15) of the same molecule?
The GI50 was over 100 µM.

What about the GI50 (786-0) of the same molecule?
The GI50 was > 100 µM (inactive).

And the GI50 (OVCAR-3)?
The GI50 was > 100 µM (inactive).

What about the GI50 (UACC-62) of the same molecule?
Its GI50 is > 100 µM (inactive).

What about the GI50 (HT-29) of the same molecule?
The GI50 was 60 µM (inactive).

And the GI50 (UACC-257)?
Its GI50 is > 100 µM (inactive).

What about the GI50 (OVCAR-4) of the same molecule?
The GI50 was > 100 µM (inactive).

What about the GI50 (SF-268) of the same molecule?
The GI50 was > 100 µM (inactive).

What about the GI50 (CAKI-1) of the same molecule?
Its GI50 is > 100 µM (inactive).

And the GI50 (IGROV-1)?
Its GI50 is > 100 µM (inactive).

And the GI50 (SW-620)?
The GI50 was > 100 µM (inactive).

What about the GI50 (RXF 393) of the same molecule?
The GI50 was > 100 µM (inactive).

What about the GI50 (HOP-62) of the same molecule?
Its GI50 is > 100 µM (inactive).

And the GI50 (KM12)?
Its GI50 is > 100 µM (inactive).

And the GI50 (K562)?
Its GI50 is > 100 µM (inactive).

What about the GI50 (CCRF-CEM) of the same molecule?
Its GI50 is > 100 µM (inactive).

What about the GI50 (SK-MEL-5) of the same molecule?
Its GI50 is > 100 µM (inactive).

For CC(C)[C@H](CCl)NC(=O)c1cccc(C(=O)N[C@H](CCl)C(C)C)n1 (stereo in doubt), which GI50 (SK-OV-3) is on record?
Its GI50 is > 100 µM (inactive).

And the GI50 (HCT-15)?
The GI50 was over 100 µM.

What about the GI50 (786-0) of the same molecule?
Its GI50 is > 100 µM (inactive).

What about the GI50 (OVCAR-3) of the same molecule?
The GI50 was > 100 µM (inactive).

What about the GI50 (HT-29) of the same molecule?
Its GI50 is > 100 µM (inactive).

And the GI50 (OVCAR-4)?
Its GI50 is > 100 µM (inactive).

And the GI50 (SF-268)?
Its GI50 is > 100 µM (inactive).

And the GI50 (CAKI-1)?
The GI50 was > 100 µM (inactive).

What about the GI50 (IGROV-1) of the same molecule?
Its GI50 is > 100 µM (inactive).

What about the GI50 (SW-620) of the same molecule?
Its GI50 is > 100 µM (inactive).

And the GI50 (RXF 393)?
The GI50 was > 100 µM (inactive).

And the GI50 (HOP-62)?
The GI50 was > 100 µM (inactive).

What about the GI50 (SNB-19) of the same molecule?
Its GI50 is > 100 µM (inactive).

And the GI50 (M14)?
Its GI50 is > 100 µM (inactive).

What about the GI50 (KM12) of the same molecule?
Its GI50 is > 100 µM (inactive).

And the GI50 (K562)?
Its GI50 is > 100 µM (inactive).

And the GI50 (CCRF-CEM)?
The GI50 was > 100 µM (inactive).

What about the GI50 (SK-MEL-5) of the same molecule?
Its GI50 is > 100 µM (inactive).
